Experiment [1] has as its system MDA-MB-231 human breast cancer cells. The experiment is described as follows: Proliferation assay MDA-MB-231 (crystal violet). The class given is cell-based. The following applies: Homo sapiens, MDA-MB-231, 96 h, MDA-MB-231 cells, 4 days, median, read-out: Prolif-MDA MB231 IC50 - [mol/l] (median). Put shortly:
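Cells seeded at 4,000/well in medium with 10% fetal calf serum, dosed after 24 h (0.01-10 micromol/L, 0.1% DMSO) and grown 4 days. Crystal violet staining read at 595 nm, normalised to zero-point plate (0%) and untreated cells (100%); IC50 by 4-parameter fit.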

Another experiment deals with T1, CDK9/CyclinT1 (Homo sapiens, UniProt P50750).
T1 construct: Recombinant full-length His-tagged human CDK9 and CycT1; His-tag; purchased Life Technologies PV4131; host or cells: insect cells
T1 sequence (P50750 whole entry): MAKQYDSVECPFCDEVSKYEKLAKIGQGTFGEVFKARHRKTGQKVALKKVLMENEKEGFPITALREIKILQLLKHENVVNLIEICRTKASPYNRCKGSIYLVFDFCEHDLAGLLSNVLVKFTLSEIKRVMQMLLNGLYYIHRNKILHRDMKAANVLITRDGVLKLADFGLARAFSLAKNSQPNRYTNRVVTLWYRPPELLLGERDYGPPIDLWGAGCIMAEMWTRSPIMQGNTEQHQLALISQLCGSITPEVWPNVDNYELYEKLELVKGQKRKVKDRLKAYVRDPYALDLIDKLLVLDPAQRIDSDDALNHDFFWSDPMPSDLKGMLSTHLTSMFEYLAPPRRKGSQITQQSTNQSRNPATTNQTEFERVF
T1 sequence (O60563 whole entry partner): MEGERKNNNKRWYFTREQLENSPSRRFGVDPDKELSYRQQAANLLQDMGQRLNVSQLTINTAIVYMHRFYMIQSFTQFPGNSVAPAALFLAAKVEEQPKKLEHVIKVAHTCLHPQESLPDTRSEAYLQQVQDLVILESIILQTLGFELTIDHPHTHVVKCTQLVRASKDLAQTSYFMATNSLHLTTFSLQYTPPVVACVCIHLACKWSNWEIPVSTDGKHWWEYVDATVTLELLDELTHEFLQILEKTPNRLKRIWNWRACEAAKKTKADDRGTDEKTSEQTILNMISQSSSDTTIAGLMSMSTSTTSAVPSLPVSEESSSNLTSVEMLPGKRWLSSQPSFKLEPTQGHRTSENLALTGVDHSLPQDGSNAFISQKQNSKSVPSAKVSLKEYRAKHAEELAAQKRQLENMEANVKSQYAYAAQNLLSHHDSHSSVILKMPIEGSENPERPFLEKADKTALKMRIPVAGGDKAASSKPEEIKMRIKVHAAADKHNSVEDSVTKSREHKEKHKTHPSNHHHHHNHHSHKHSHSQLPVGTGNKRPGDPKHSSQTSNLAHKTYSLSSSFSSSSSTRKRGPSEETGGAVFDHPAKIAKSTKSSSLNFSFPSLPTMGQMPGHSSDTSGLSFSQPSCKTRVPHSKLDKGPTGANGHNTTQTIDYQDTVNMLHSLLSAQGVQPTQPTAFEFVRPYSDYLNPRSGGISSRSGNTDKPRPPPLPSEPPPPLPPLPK
The experiment is described as follows: CDK9/CycT1 high ATP kinase assay (TR-FRET). The class given is biochemical. The following applies: 2 mM ATP (high ATP); median; read-out: CDK9/CyclinT1, 2 mM ATP (high ATP) IC50 - [mol/l] (median). Put shortly: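 Full-length His-tagged human CDK9/CycT1 (insect cell) at ~0.5 µg/mL, preincubated with compound 15 min at 22 °C in Tris pH 8.0 buffer, then reacted 25 min with 2 mM ATP and 0.75 µM biotinylated peptide (final). Phospho-substrate detected by TR-FRET (anti-RB pSer807/811, Eu/XL665), 665/620 nm ratio normalised to no-inhibitor and no-enzyme controls.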
Background: TR-FRET usually uses a lanthanide donor and a delayed reading to cut background.

Bounds are passed on as bounds.

On to `OCCn1nc(NCc2nc3ccccc3[nH]2)c2ncc(C3CC3)nc21` [Example 66, 2-(3-{[(1H-benzimidazol-2-yl)methyl]amino}-6-cyclopropyl-1H-pyrazolo[3,4-b]pyrazin-1-yl)ethan-1-ol], for which the IC50 was 386 nM in experiment [1] and over 20000 nM at CDK9/CyclinT1.
`COC(C)(C)CCn1nc(NCc2nc3ccccc3[nH]2)c2ncc(C3CC3)nc21` [Example 67, N-[(1H-benzimidazol-2-yl)methyl]-6-cyclopropyl-1-(3-methoxy-3-methylbutyl)-1H-pyrazolo[3,4-b]pyrazin-3-amine]: the results for the IC50 (in experiment [1]; on CDK9/CyclinT1) were 268 nM and over 20000 nM, respectively.
Turning to `CN(C)CCn1nc(NCc2nc3ccccc3[nH]2)c2ncc(C3CC3)nc21` [Example 68, N-[(1H-benzimidazol-2-yl)methyl]-6-cyclopropyl-1-[2-(dimethylamino)ethyl]-1H-pyrazolo[3,4-b]pyrazin-3-amine], the IC50 in experiment [1] was 645 nM; at CDK9/CyclinT1 it was over 20000 nM.
As to `CC(C)(O)Cn1nc(NCc2nc3ccccc3[nH]2)c2ncc(C3CC3)nc21` [Example 69, 1-(3-{[(1H-benzimidazol-2-yl)methyl]amino}-6-cyclopropyl-1H-pyrazolo[3,4-b]pyrazin-1-yl)-2-methylpropan-2-ol], the IC50 in experiment [1] is 311 nM; at CDK9/CyclinT1, over 20000 nM.
`O[C@H]1C[C@H](Cn2nc(NCc3nc4ccccc4[nH]3)c3ncc(C4CC4)nc32)C1` [Example 70, trans-3-[(3-{[(1H-benzimidazol-2-yl)methyl]amino}-6-cyclopropyl-1H-pyrazolo[3,4-b]pyrazin-1-yl)methyl]cyclobutan-1-ol]: the IC50 in experiment [1] is 174 nM; at CDK9/CyclinT1, over 20000 nM.
Regarding `O[C@H]1C[C@@H](Cn2nc(NCc3nc4ccccc4[nH]3)c3ncc(C4CC4)nc32)C1` [Example 71, cis-3-[(3-{[(1H-benzimidazol-2-yl)methyl]amino}-6-cyclopropyl-1H-pyrazolo[3,4-b]pyrazin-1-yl)methyl]cyclobutan-1-ol], the IC50 in experiment [1] is 70.8 nM; at CDK9/CyclinT1 it was over 20000 nM.
With `OC1(Cn2nc(NCc3nc4ccccc4[nH]3)c3ncc(C4CC4)nc32)CCC1` [Example 72, 1-[(3-{[(1H-benzimidazol-2-yl)methyl]amino}-6-cyclopropyl-1H-pyrazolo[3,4-b]pyrazin-1-yl)methyl]cyclobutan-1-ol], the IC50 in experiment [1] is 109 nM; on CDK9/CyclinT1, over 20000 nM.
Regarding `OC1(Cn2nc(NCc3nc4ccccc4[nH]3)c3ncc(C4CC4)nc32)CCCC1` [Example 73, 1-[(3-{[(1H-benzimidazol-2-yl)methyl]amino}-6-cyclopropyl-1H-pyrazolo[3,4-b]pyrazin-1-yl)methyl]cyclopentan-1-ol], the IC50 in experiment [1] is 141 nM; on CDK9/CyclinT1 it was over 20000 nM.
For `OCC1(Cn2nc(NCc3nc4ccccc4[nH]3)c3ncc(C4CC4)nc32)CCC1` [Example 74, {1-[(3-{[(1H-benzimidazol-2-yl)methyl]amino}-6-cyclopropyl-1H-pyrazolo[3,4-b]pyrazin-1-yl)methyl]cyclobutyl}methanol], in that order: 251 nM and over 20000 nM.
In the same order, the values of `c1ccc2[nH]c(CNc3nn(CC4CCC4)c4nc(C5CC5)cnc34)nc2c1` [Example 75, N-[(1H-benzimidazol-2-yl)methyl]-1-(cyclobutylmethyl)-6-cyclopropyl-1H-pyrazolo[3,4-b]pyrazin-3-amine] are 376 nM and over 20000 nM.
In the case of `CC(C)(O)CCn1nc(NCc2nc3ccccc3[nH]2)c2ncc(C3CC3)nc21` [Example 76, 4-(3-{[(1H-benzimidazol-2-yl)methyl]amino}-6-cyclopropyl-1H-pyrazolo[3,4-b]pyrazin-1-yl)-2-methylbutan-2-ol], the values for the IC50 (in experiment [1]; at CDK9/CyclinT1) were 124 nM and over 20000 nM, respectively.
In the case of `Cc1cnc2c(NCc3nc4ccccc4[nH]3)nn(C3CCN(C)CC3)c2n1` [Example 77, N-[(1H-benzimidazol-2-yl)methyl]-6-methyl-1-(1-methylpiperidin-4-yl)-1H-pyrazolo[3,4-b]pyrazin-3-amine], the figures for the IC50 (in experiment [1]; on CDK9/CyclinT1) were 3000 nM and over 20000 nM, respectively.

The record behind these values is US20230192700A1, “PYRAZOLOPYRAZINES ACTING ON CANCERS VIA INHIBITION OF CDK12” (Bayer Aktiengesellschaft, priority 2020, published 2023).
